Columns and labels:
c-KIT V560G/D816V = assay: Proliferation inhibitory activity on Ba/F3 cell (CellTiter-Glo, 72 hours), c-KIT V560G/D816V; type: cell-based; details: Mus musculus, BaF3, c-KIT V560G/D816V cells, read-out: Cell (nM) c-KIT V560G/D816V (GI50 class)
Procedure: (§1) Ba/F3-TEL-PDGFRα(WT), Ba/F3-TEL-PDGFβ(WT), Ba/F3-c-KIT(D816V) (Kyinno, #KC-0138), c-KIT V560G/D816V, c-KIT D814Y were seeded at 3×10^3/100 μl/well in a clear bottom white 96-well plate. A culture solution containing compounds of 12 concentrations (0.00001-2 mM) serially diluted in 3 folds and the DMSO control group was added at 0.5 μl/well each to a final concentration of 0.00005-10 μM, and then incubated in a CO2 incubator at 37° C. for 72 hours. After 72 hours, the plate treated with the compound was taken out, CellTiter-Glo® Assay (Promega) solution was treated with 100 μl/well, followed by mixing well. After mixing well for about 10 minutes at room temperature, […] was measured using a microplate reader. The data were presented as percentages in proportion to treated cells based on the vehicle, GI50 (nM) values were calculated using GraphPad Prism 8.3.0 (GraphPad software Inc., San Diego).
(§2) The inhibitory activities of Ba/F3 expressing PDGFR-α, PDGFR-β, c-KIT(D816V), c-KIT V560G/D816V, and c-KIT D814Y measured as described above were measured and shown in Table 7 below (A: GI50≤200 nM; B: 200 nM<GI50≤500 nM; C: GI50>500 nM).

Ba/F3-c-KIT(D816V) = assay: Proliferation inhibitory activity on Ba/F3 cell (CellTiter-Glo, 72 hours), c-KIT(D816V); type: cell-based; details: Mus musculus, BaF3, read-out: Ba/F3 (nM) c-KIT (D816V) (GI50 class)
Procedure: as §1, §2

Row | SMILES | GI50 (c-KIT V560G/D816V) [nM] | GI50 (Ba/F3-c-KIT(D816V)) [nM]
1 | COc1cc2c(-c3ccc(NC(=O)Cc4ccc(C(F)(F)F)cc4)cc3)ncnc2cc1OCc1cccnc1 [Example 29, N-(4-(6-methoxy-7-(pyridin-3-ylmethoxy)quinazolin-4-yl)phenyl)-2-(4-(trifluoromethyl)phenyl)acetamide] | ≤ 200 | ≤ 200
2 | COc1cc2c(-c3ccc(NC(=O)Cc4ccc(C(F)(F)F)cc4)cc3)ncnc2cc1OCCCN1CCN2CCCC2C1 (stereo not shown) [Example 33, N-(4-(7-(3-(hexahydropyrrolo[1,2-a]pyrazin-2(1H)-yl)propoxy)-6-methoxyquinazolin-4-yl)phenyl)-2-(4-(trifluoromethyl)phenyl)acetamide] | ≤ 200 | ≤ 200
3 | COc1cc2c(-c3ccc(NC(=O)Cc4ccc(C(F)(F)F)cc4)cc3)ncnc2cc1OCCCN1CCn2c(nnc2C(F)(F)F)C1 [Example 34, N-(4-(6-methoxy-7-(3-(3-(trifluoromethyl)-5,6-dihydro-[1,2,4]triazolo[4,3-a]pyrazin-7(8H)-yl)propoxy)quinazolin-4-yl)phenyl)-2-(4-(trifluoromethyl)phenyl)acetamide] | ≤ 200 | ≤ 200
4 | COc1cc2c(-c3ccc(NC(=O)Cc4ccc(C(F)(F)F)cc4)cc3)ncnc2cc1OC[C@@H]1CCN(C(=O)OC(C)(C)C)C1 [Example 35, tert-butyl (R)-3-(((6-methoxy-4-(4-(2-(4-(trifluoromethyl)phenyl)acetamido)phenyl)quinazolin-7-yl)oxy)methyl)pyrrolidin-1-carboxylate] | > 500 | ≤ 200
5 | COc1cc2c(-c3ccc(NC(=O)Cc4ccc(C(F)(F)F)cc4)cc3)ncnc2cc1OC[C@H]1CCN(C(=O)OC(C)(C)C)C1 [Example 36, tert-butyl (S)-3-(((6-methoxy-4-(4-(2-(4-(trifluoromethyl)phenyl)acetamido)phenyl)quinazolin-7-yl)oxy)methyl)pyrrolidin-1-carboxylate] | > 500 | ≤ 200
6 | COc1cc2c(-c3ccc(NC(=O)Cc4ccc(C(F)(F)F)cc4)cc3)ncnc2cc1OC[C@H]1CCNC1 [Example 39, (S)-N-(4-(6-methoxy-7-(pyrrolidin-3-ylmethoxy)quinazolin-4-yl)phenyl)-2-(4-(trifluoromethyl)phenyl)acetamide] | 200 to 500 | ≤ 200
7 | CCN1CC[C@H](COc2cc3ncnc(-c4ccc(NC(=O)Cc5ccc(C(F)(F)F)cc5)cc4)c3cc2OC)C1 [Example 41, (S)-N-(4-(7-((1-ethylpyrrolidin-3-yl)methoxy)-6-methoxyquinazolin-4-yl)phenyl)-2-(4-(trifluoromethyl)phenyl)acetamide] | ≤ 200 | ≤ 200
8 | COCCN1CCCC(COc2cc3ncnc(-c4ccc(NC(=O)Cc5ccc(C(F)(F)F)cc5)cc4)c3cc2OC)C1 (stereo not shown) [Example 42, N-(4-(6-methoxy-7-((1-(2-methoxyethyl)piperidin-3-yl)methoxy)quinazolin-4-yl)phenyl)-2-(4-(trifluoromethyl)phenyl)acetamide] | ≤ 200 | ≤ 200
9 | COc1cc2c(-c3ccc(NC(=O)Cc4ccc(C(F)(F)F)cc4)cc3)ncnc2cc1OCCCN1CCC(C)CC1 [Example 44, N-(4-(6-methoxy-7-(3-(4-methylpiperidin-1-yl)propoxy)quinazolin-4-yl)phenyl)-2-(4-(trifluoromethyl)phenyl)acetamide] | ≤ 200 | ≤ 200
10 | COc1cc2c(-c3ccc(NC(=O)Cc4cccc(C(F)(F)F)c4)cc3)ncnc2cc1OCCCN1CCN(C)CC1 [Example 55, N-(4-(6-methoxy-7-(3-(4-methylpiperazin-1-yl)propoxy)quinazolin-4-yl)phenyl)-2-(3-(trifluoromethyl)phenyl)acetamide] | ≤ 200 | ≤ 200
11 | COc1cc2c(-c3ccc(NC(=O)Cc4cccc(C(F)(F)F)c4)cc3)ncnc2cc1OCC1CCNCC1 [Example 60, N-(4-(6-methoxy-7-(piperidin-4-ylmethoxy)quinazolin-4-yl)phenyl)-2-(3-(trifluoromethyl)phenyl)acetamide] | 200 to 500 | ≤ 200
